Measurements from patent publication US12663425B2, “Delta-2-tubulin as a biomarker and therapeutic target for peripheral neuropathy” (THE TRUSTEES OF COLUMBIA UNIVERSITY IN THE CITY OF NEW YORK, priority 2017, dated 2026).

Columns and labels:
DRG neurons [1] = experiment: EGFP-EB3 analysis of microtubule dynamics in DRG neurons; assay type: cell-based; conditions: DRG neurons 7 DIV, 100 nM, prior to delta-2-tubulin induction (FIG. 8)
Protocol: FIG. 8. Bortezomib induces MT stability without affecting MT dynamics prior to D2 induction. EGFP-EB3 time course analysis of MT dynamics parameters in DRG neurons (7 days in vitro (DIV)) treated with 100 nM Bortezomib for the indicated times. Data were pulled from up to 300 comets and 12-15 neurites for each group and analyzed by one-way ANOVA, multiple comparison. (NS, non-significant).
(§1) Microtubule dynamics were analyzed in DRG neurons following bortezomib treatment. […] TTL binds αβ-tubulin dimer and catalyzes the post-translational addition of a tyrosine to the C-terminal end of detyrosinated α-tubulin. Song et al., J. of Bio. Chem. 290(23):14765-14775 (2015).

delta-2-tubulin [2] = experiment: Quantitative immunofluorescence of tubulin post-translational modifications in DRG and sural nerve of treated rats; assay type: in vivo, female Wistar rats
Protocol: FIG. 2. Immunofluorescence analysis of selected α-tubulin post-translational modifications in neuronal tissue from chronically treated rats. Relative tubulin post-translational modifications levels measured by quantitative immunofluorescence in randomly selected dorsal root ganglion cell bodies (DRG) and sural nerve (SN) from rats (4 per group) treated with chronic (0.2 mg/kg, 3× week for 8 weeks) doses of Bortezomib. Data are mean values±SEM. ****, p≤0.0001; ***, p≤0.001; **, p≤0.01; *, p≤0.05 by ANOVA (in red,) or unpaired, two-tailed t-test (in black).
FIG. 3A-3C. […] (A) Representative immunofluorescence staining of DRG isolated from rats acutely treated with Bortezomib. (B) Relative tubulin post-translational modifications levels measured by quantitative immunofluorescence in randomly selected DRG and SN from rats (4 per group) treated with acute (i.v. 0.2 mg/kg; 24 hr) doses of Bortezomib. Data are mean values±SEM, ****, p≤0.0001; ***, p≤0.001; **, p≤0.01; *, p≤0.05 by ANOVA (A in red,) or unpaired, two-tailed t-test (A in black). (C) Schematic of the enzymes involved in D2 generation.
FIG. 13A-13E. […] (A) Immunofluorescence staining of Peripherin (smaller unmyelinated C-fibers) or (B) NF200 (large myelinated A-β fibers)(C) TrkC (proprioceptive)(D) TrkA (nociceptive) in DRG L4-L5 dissected from rats treated with Bortezomib for 24 hr. (E) Correlation between peripherin, NF200, TrkC, TrkA and D2 intensity values in randomly selected DRG cell bodies was calculated by using Pearson coefficient (r). Scale bar, 50 μm.
To determine the effects of bortezomib on the post-translation modifications of tubulin, female Wistar rats were treated with single or multiple administrations pf bortezomib (5 rats for each treatment). Acute treatment included a single intravenous administration of bortezomib at a concentration of 0.2 mg/kg. Chronically treated rats were treated with bortezomib for a total of 8 weeks, with administration of bortezomib three times per week at a concentration of 0.2 mg/kg.
To determine the effect of bortezomib on tubulin expression, DRGs were analyzed for delta-2-tubulin expression. […] Further analysis of other unrelated chemotherapy-induced peripheral neuropathy (CIPN) drugs was performed to determine their effect on delta-2-tubulin expression levels. […] Additional experiments were performed to determine whether DRGs with different sensory modalities and diameters are preferentially affected by bortezomib treatment.

DRG neurons [3] = experiment: Axonal degeneration (degeneration index) in cultured DRG neurons; assay type: cell-based; conditions: DRG neurons treated with 100 nM for the indicated times (FIG. 7C)
Protocol: (§2) FIG. 7A-7D. Bortezomib induces delta-2-tubulin at the onset of axonal degeneration. (A) Representative immunofluorescence of D2 and βIII-tub staining in DRG neurons treated with 100 nM of Bortezomib for the indicated times. Bar, 50 μm. (B) Ratio analysis of D2/βIII-tubulin levels measured by immunofluorescence of fixed cells treated as in A. **, p≤0.01, ****, p≤0.0001 by t-test (unpaired, two-tailed). […] Data are mean values±SEM from 3 experiments. (D) Number of retraction bulbs per field in DRG neurons treated with 100 nM of Bortezomib for the indicated times. **, p≤0.01.
FIG. 9A-9E. Delta-2-tubulin accumulation is sufficient to drive axonopathy. (A) Schematic of the enzymes involved in D2 generation. (B) Immunoblot of tubulin tyrosine ligase (TTL), D2 and tyrosinated (TYR) tubulin levels in adult DRG neurons (14 DIV) silenced of TTL expression at 7 DIV. (C) Representative immunofluorescence images of DRG neurons as in B. (D) Axonal degeneration and number of retraction bulbs per field in DRG neurons treated as in B. (E) Axonal degeneration in DRG neurons that overexpress D2-(PVLX-EGFP-D2Tub) or WT-tubulin (PVLX-EGFP-Tub). Data are mean values±SEM from 3 experiments. ***, p≤0.001; **, p≤0.01, *p≤0.05 by t-test (unpaired, two-tailed). Bar, […].
FIG. 14A-14D. […]
Peripheral neurons from patients suffering from CIPN were analyzed for delta-2-tubulin expression. […]

[4] = test system: tubulin tyrosine ligase (TTL); experiment: Immunoblot of tubulin tyrosine ligase (TTL) and D2 levels in adult DRG neurons; assay type: cell-based; conditions: adult DRG neurons 14 DIV, 100 nM (FIG. 11)
Protocol: FIG. 11. Immunoblot of tubulin tyrosine ligase (TTL) and D2 levels in adult DRG neurons (14 DIV) treated with 100 nM Bortezomib.
as §1

delta-2-tubulin [5] = experiment: Delta-2-tubulin in sural nerve biopsy of CIPN patients (immunofluorescence, immunoblot); assay type: in vivo; conditions: CIPN patients (FIG. 5)
Source text: FIG. 5A-5C. Bortezomib induces delta-2-tubulin in CIPN patients. (A) Representative immunofluorescence staining of SN isolated from a patient affected by CIPN. (B) Ratio analysis of D2/βIII-tubulin levels measured by immunofluorescence of fixed tissue from one SN biopsy. Data are mean values from 3 sections±SEM, ****, p<0.0001 by t-test (unpaired, two-tailed). (C) Immunoblot of D2 levels in whole cell lysates from one SN biopsy. Tyr, tyrosinated tubulin.
(§3) Peripheral neurons from patients suffering from CIPN were analyzed for delta-2-tubulin expression. […] In addition.

[6] = Dynamic test, plantar test and electrophysiological tests in rats chronically treated with bortezomib; assay type: in vivo, female Wistar rats; conditions: chronic: 0.2 mg/kg, three times per week, 8 weeks
Protocol: FIG. 1A-1D. Chronic doses of bortezomib affect animal behavior and nerve function. (A) Hind-paw withdrawal response to mechanical stimulus (10-50 g). (B) Plantar withdrawal latency response to heat source (infra-red light). Dynamic and plantar tests were performed before (baseline value), after 4-week and at the end point of treatment with Bortezomib. Data are expressed as mean values±SD, n animals=12. (C, D) Caudal and digital nerve conduction velocity (NCV) and amplitude measured in rats treated chronically with Bortezomib. n=8-10 per group; *p<0.05 compared to control.
To determine the effects of bortezomib on the post-translation modifications of tubulin, female Wistar rats were treated with single or multiple administrations pf bortezomib (5 rats for each treatment). Acute treatment included a single intravenous administration of bortezomib at a concentration of 0.2 mg/kg. Chronically treated rats were treated with bortezomib for a total of 8 weeks, with administration of bortezomib three times per week at a concentration of 0.2 mg/kg. […] Certain post-translation modifications of α-tubulin, e.g., acetylation, are reduced in dorsal root ganglions neurons (DRGs) and sural nerves (SNs) from rats chronically treated with bortezomib (FIG. 2) and in rats acutely treated with bortezomib (FIG. 3).

DRG neurons [7] = experiment: Mitochondrial motility in DRG neurons (mito-DsRed kymographs); assay type: cell-based; conditions: 100 nM for 24 hr (FIG. 15D)
Protocol: FIG. 15A-15F. D2 accumulation is necessary and sufficient to affect mitochondria motility. (A) Representative kymographs of mitochondrial motility in DRG neurons (7 DIV) infected for 4 days with PVLX-EGFP-D2- or WT-Tubulin lentivirus prior to 72 hr infection with mito-DsRed lentivirus. (B) Quantification of the percentage of moving mitochondria as in A. Videos (10 s/frame for 30 min). (C, F) Percentage of different mitochondria movement states, Dynamic Pause (DP), Stationary (STA), Anterograde Running (AR), Retrograde Running (RR) (1 s/frame for 3 min, C), (10 s/frame for 30 min, F). (D) Representative kymographs of mitochondrial motility in DRG neurons (7 DIV) infected for 4 days with ShCCP1 or shControl lentivirus prior 72 hr infection with mito-DsRed lentivirus followed by Bortezomib treatment (100 nM for 24 hr). (E) Quantification of the percentage of moving mitochondria as in D. Videos (10 s/frame for 30 min). […]
To determine the effect bortezomib and delta-2 tubulin accumulation have on mitochondrial motility, DRG neurons were transduced with lentivirus to express wild-type tubulin or delta-2 tubulin. […] Expression of delta-2 tubulin affected every state of mitochondrial movement analyzed except for the stationary state (STA) (FIG. 15C). The effect of CCP1 knockdown on mitochondrial movement in the presence of bortezomib was also analyzed.

delta-2-tubulin [8] = experiment: Delta-2-tubulin levels in cultured neurons (western blot, immunofluorescence); assay type: cell-based; conditions: for delta-2-tubulin expression: cultured hippocampal and DRG neurons (FIG. 6)
Protocol: FIG. 6. Bortezomib induces delta-2-tubulin in DRG neurons as shown by western blot analysis of delta-2-tubulin levels from whole cell lysates of adult DRG neurons treated with Bortezomib and immunofluorescence of delta-2-tubulin in cultured DRG neurons treated with Bortezomib.
as §2
FIG. 12. (A) Immunoblot of D2 levels from whole cell lysates of adult DRG neurons (14 DIV) treated with increasing doses of Bortezomib for the indicated times. (B) IB of D2 levels in the MT pellet (P) and soluble tubulin (S) fractions isolated from adult DRG neurons (8 DIV) treated with 100 nM of Bortezomib for the indicated times.
as §3

| SMILES | microtubule dynamics (rescue/nucleation frequency, catastrophe frequency, comet density, growth rate) (DRG neurons [1]) | delta-2-tubulin in proprioceptive and nociceptive DRG neurons (delta-2-tubulin [2]; DRG L4-L5 of rats treated for 24 hr (FIG. 13)) | delta-2-tubulin in DRG cell bodies, compared to βIII-tubulin and control (delta-2-tubulin [2]; acute treatment, single i.v. 0.2 mg/kg, 24 hr (FIG. 3)) | delta-2-tubulin in DRG cell bodies, compared to βIII-tubulin and control (delta-2-tubulin [2]; chronic treatment, 0.2 mg/kg 3x week for 8 weeks (FIG. 2)) | post-translation modifications of α-tubulin, e.g., acetylation, in DRGs and SNs (delta-2-tubulin [2]; rats acutely treated, single i.v. 0.2 mg/kg, 24 hr (FIG. 3)) | post-translation modifications of α-tubulin, e.g., acetylation, in DRGs and SNs (delta-2-tubulin [2]; rats chronically treated, 0.2 mg/kg 3x week for 8 weeks (FIG. 2)) | axonopathy (DRG neurons [3]) | TTL expression, western blot [4] | delta-2-tubulin, western blot [4] | delta-2-tubulin expression in peripheral neurons, e.g., sural nerve (delta-2-tubulin [5]) | animal behavior and nerve function (dynamic test, plantar test, electrophysiological tests) [6] | movement of mitochondria (DRG neurons [7]) | delta-2-tubulin induction relative to axonal degeneration (degeneration index) (delta-2-tubulin [8]; DRG neurons, 100 nM, time course (FIG. 7)) | delta-2-tubulin expression (delta-2-tubulin [8]) | delta-2-tubulin in DRG neurons compared to control (delta-2-tubulin [2]; unrelated CIPN drugs, acute (FIG. 4)) |
| --- | --- | --- | --- | --- | --- | --- | --- | --- | --- | --- | --- | --- | --- | --- | --- |
| CC(C)C[C@H](NC(=O)[C@H](Cc1ccccc1)NC(=O)c1cnccn1)B(O)O [bortezomib] | does not affect microtubule dynamics | accumulate delta-2-tubulin | increased | increased | reduced | reduced | Time dependent increase of axonopathy | reduction of TTL expression | accumulation of delta-2-tubulin | induced delta-2-tubulin expression | affected animal behavior and nerve function | greatly affected the movement of mitochondria | induced delta-2-tubulin at the onset of axonal degeneration | increase in delta-2-tubulin expression | – |
| CC(=O)O[C@H]1C(=O)[C@@]2(C)[C@H]([C@H](OC(=O)c3ccccc3)[C@]3(O)C[C@H](OC(=O)[C@H](O)[C@@H](NC(=O)c4ccccc4)c4ccccc4)C(C)=C1C3(C)C)[C@]1(OC(C)=O)CO[C@@H]1C[C@@H]2O [paclitaxel] | – | – | – | – | – | – | – | – | – | – | – | – | – | increase in delta-2-tubulin expression | acutely accumulated delta-2-tubulin |
